Assay results taken from patent US6693115B2, “Acid addition salts of hydropyridine derivatives” (Sankyo Company, Limited, priority 2000, dated 2004).

Legend:
[1] = tested on: ADP-induced platelet aggregation; experiment: Inhibitory effect on platelet aggregation (feeding), ex vivo PRP after oral administration; assay type: in vivo, male beagle dogs; settings: fed dogs, oral 0.3 mg/kg, ADP 20 μM, mean ± standard deviation; for Inhibition (%) of platelet aggregation 2 hours: 2 hours after administration; for Inhibition (%) of platelet aggregation 4 hours: 4 hours after administration
Experimental: Inhibitory Effect on Platelet Aggregation (Feeding)
For this test, male beagle dogs (about 10 kg in body weight, purchased from Kasho Co., Ltd. and Nippon Nosan Kogyo K.K.) were used. One group consisted of 5 or 6 dogs. The platelet aggregation was measured using an automatic platelet aggregometer (“PAM-6C”, trade name; a product of Mebanix Corporation) in accordance with the method of Born, et al. (J. Physiol., 168, 178 (1963)) with a partial modification.
Each of 2.5 hours and 4.5 hours after feeding, 5.4 ml of blood was collected from the cephalic vein of each dog using sodium citrate (0.6 ml, 3.8% (w/v)) as an anticoagulant. The citrate-added blood was centrifuged (240 g, 20 minutes) to separate platelet-rich plasma (hereinafter referred to as “PRP”) and platelet-poor plasma (hereinafter referred to as “PPP”). After the number of platelets in PRP was counted by an automatic hematology analyzer (“K-1000”, trade name; a product of Sysmex Corporation), PPP was added to adjust the number of platelets to 3×10^8/ml. PRP (240 μl) dispensed in a cuvette was set on the automatic platelet aggregometer. After preheating (at 37° C.) for 1 minute, 10 μl of ADP (final concentration: 20 μM) was added to cause platelet aggregation. For 10 minutes, platelet aggregation was measured and the maximum aggregation was determined to give the pre-administration value.
On the next day, 30 minutes after feeding, each test compound filled in a gelatin capsule was orally administered to the dogs. The blood was collected each of 2 and 4 hours after the administration. The platelet aggregation of PRP was measured, whereby the maximum aggregation was determined. The inhibition (%) of platelet aggregation by the test compound was calculated by comparing it with the pre-administration value.
In these tables, the term “hydrochloride” means 2-acetoxy-5-(α-cyclopropylcarbonyl-2-fluorobenzyl)-4,5,6-7-tetrahydrothieno[3,2-c]pyridine hydrochloride obtained in Example 1, “free form” means 2-acetoxy-5-(α-cyclopropylcarbonyl-2-fluorobenzyl)-4,5,6,7-tetrahydrothieno[3,2-c]pyridine, and “maleate” means 2-acetoxy-5-(α-cyclopropylcarbonyl-2-fluorobenzyl)-4,5,6,7-tetrahydrothieno[3,2-c]pyridine maleate obtained in Example 2.

[2] = tested on: ADP-induced platelet aggregation; experiment: Inhibitory effect on platelet aggregation (fasting), ex vivo PRP after oral administration; assay type: in vivo, male beagle dogs; settings: Table 4, fasted dogs, oral 1.0 mg/kg, ADP 20 μM, mean ± standard deviation; for Inhibition (%) of platelet aggregation 2 hours: 2 hours after administration; for Inhibition (%) of platelet aggregation 4 hours: 4 hours after administration
Experimental: Inhibitory Effect on Platelet Aggregation (Fasting)
For this test, male beagle dogs (about 10 kg in body weight, purchased from Kasho Co., Ltd. and Nippon Nosan Kogyo K.K.) were used. One group consisted of 3 dogs. The platelet aggregation was measured using an automated platelet aggregometer (“PAM-6C”, trade name; a product of Mebanix Corporation) in accordance with the method of Born, et al. (J. Physiol., 168, 178(1963)) with a partial modification.
From the cephalic vein of each dog fasted overnight, 5.4 ml of the blood was collected using sodium citrate (0.6 ml, 3.8% (w/v)) as an anticoagulant. The resulting citrate-added blood was centrifuged (240 g, 20 minutes) to separate platelet-rich plasma (hereinafter referred to as “PRP”) and platelet-poor plasma (hereinafter referred to as “PPP”). After the number of platelets in PRP was counted by an automatic hematology analyzer (“K-1000”, trade name; a product of Sysmex Corporation), PPP was added to adjust the number of platelets to 3×10^8/ml. PRP (240 μl) dispensed in a cuvette was set on the automatic platelet aggregometer. After preheating (at 37° C.) for 1 minute, 10 μl of ADP (final concentration: 20 μM) was added to cause platelet aggregation. For 10 minutes, platelet aggregation was measured and the maximum aggregation was determined to give the pre-administration value.
On the next day, each test compound filled in a gelatin capsule was orally administered to the dogs. The blood was collected each of 2 and 4 hours after administration. The platelet aggregation of PRP was measured, whereby the maximum aggregation was determined. The inhibition (%) of platelet aggregation by the test compound was calculated by comparing it with the pre-administration value.
In this table, the term “maleate” means 2-acetoxy-5-(α-cyclopropylcarbonyl-2-fluorobenzyl)-4,5,6,7-tetrahydrothieno[3,2-c]pyridine maleate obtained in Example 2, while the term “free form” means 2-acetoxy-5-(α-cyclopropylcarbonyl-2-fluorobenzyl)-4,5,6,7-tetrahydrothieno[3,2-c]pyridine.

[3] = Storage stability of crystal forms; assay type: physicochemical; settings: comparison between hydrochloride crystal forms

Compound | Inhibition (%) of platelet aggregation 2 hours ([1]; Table 2) [%] | Inhibition (%) of platelet aggregation 4 hours ([1]; Table 2) [%] | Inhibition (%) of platelet aggregation 2 hours ([1]; Table 3) [%] | Inhibition (%) of platelet aggregation 4 hours ([1]; Table 3) [%] | Inhibition (%) of platelet aggregation 2 hours [2] [%] | Inhibition (%) of platelet aggregation 4 hours [2] [%] | storage stability [3]
CC(=O)Oc1cc2c(s1)CCN(C(C(=O)C1CC1)c1ccccc1F)C2 (stereo not drawn) [Free form, 2-Acetoxy-5-(α-cyclopropylcarbonyl-2-fluorobenzyl)-4,5,6,7-tetrahydrothieno[3,2-c]pyridine, reference compound] | 25.8 ± 10.9 | 28.6 ± 14.2 | 21.7 ± 9.8 | 23.8 ± 12.6 | 27.9 ± 24.8 | 28.7 ± 24.4 | 
CC(=O)Oc1cc2c(s1)CCN(C(C(=O)C1CC1)c1ccccc1F)C2.Cl (stereo not drawn) [Hydrochloride, 2-Acetoxy-5-(α-cyclopropylcarbonyl-2-fluorobenzyl)-4,5,6,7-tetrahydrothieno[3,2-c]pyridine hydrochloride (crystal A)] | 49.0 ± 18.7 | 48.5 ± 18.3 |  |  |  |  | 
CC(=O)Oc1cc2c(s1)CCN(C(C(=O)C1CC1)c1ccccc1F)C2.O=C(O)/C=C\C(=O)O (stereo not drawn) [Maleate, 2-Acetoxy-5-(α-cyclopropylcarbonyl-2-fluorobenzyl)-4,5,6,7-tetrahydrothieno[3,2-c]pyridine maleate] |  |  | 50.9 ± 14.5 | 58.6 ± 15.7 | 63.4 ± 22.9 | 88.5 ± 5.7 | 
CC(=O)Oc1cc2c(s1)CCN(C(C(=O)C1CC1)c1ccccc1F)C2.Cl (stereo not drawn) [crystal B1, 2-Acetoxy-5-(α-cyclopropylcarbonyl-2-fluorobenzyl)-4,5,6,7-tetrahydrothieno[3,2-c]pyridine Hydrochloride (Crystal B1)] |  |  |  |  |  |  | more excellent storage stability than crystal A
CC(=O)Oc1cc2c(s1)CCN(C(C(=O)C1CC1)c1ccccc1F)C2.Cl (stereo not drawn) [crystal B2, 2-Acetoxy-5-(α-cyclopropylcarbonyl-2-fluorobenzyl)-4,5,6,7-tetrahydrothieno[3,2-c]pyridine hydrochloride (crystal B2)] |  |  |  |  |  |  | more excellent storage stability than crystal B1
